Row | Structure (SMILES) | melting point [°C]
1 | COc1cc(Br)c(/C=C/C(=O)CC(=O)/C=C/c2ccc(O)cc2)cc1O [CU543, (1E,6E)-1-(2-bromo-5-hydroxy-4-methoxyphenyl)-7-(4-hydroxyphenyl)hepta-1,6-diene-3,5-dione] | 224 to 229
2 | O=C(/C=C/c1ccc(O)cc1)CC(=O)/C=C/c1cc2ccccc2o1 [CU321, (1E,6E)-1-(benzofuran-2-yl)-7-(4-hydroxyphenyl)hepta-1,6-diene-3,5-dione] | 173 to 178
3 | O=C(/C=C/c1ccc(O)cc1)CC(=O)/C=C/c1ccccc1N1CCNCC1.O=C(O)C(F)(F)F.O=C(O)C(F)(F)F | 139 to 150
4 | O=C(/C=C/c1ccc(O)cc1)CC(=O)/C=C/c1ccc(-n2ccnc2)cc1 [CU329, (1E,6E)-1-(4-hydroxyphenyl)-7-[4-(1H-imidazol-1-yl)phenyl]hepta-1,6-diene-3,5-dione] | 255 to 260
5 | N[C@H](Cc1ccccc1)C(=O)Nc1ccc(/C=C/C(=O)CC(=O)/C=C/c2ccc(O)cc2)cc1 [CU423, (1E,6E)-1-[4-((R)-2-amino-3-phenylpropionylamino)phenyl]-7-(4-hydroxyphenyl)hepta-1,6-diene-3,5-dione] | 161 to 167
6 | COc1ccc(/C=C/C(=O)CC(=O)/C=C/c2ccc3ccn(Cc4ccccc4)c3c2)cc1O [CU444, (1E,6E)-1-(1-benzyl-1H-indol-6-yl)-7-(3-hydroxy-4-methoxyphenyl)hepta-1,6-diene-3,5-dione] | 190 to 194
7 | COc1ccc(/C=C/C(=O)CC(=O)/C=C/c2ccc(O)c(OC)c2)c(OC)c1 [CU073, (1E,6E)-1-(2,4-dimethoxyphenyl)-7-(4-hydroxy-3-methoxyphenyl)hepta-1,6-diene-3,5-dione] | 108 to 113
8 | COc1cc(/C=C/C(=O)CC(=O)/C=C/c2ccc3[nH]ccc3c2)ccc1O [CU188, (1E,6E)-1-(4-hydroxy-3-methoxyphenyl)-7-(1H-indol-5-yl)hepta-1,6-diene-3,5-dione] | 135 to 138
9 | CS(=O)(=O)n1cc(/C=C/C(=O)CC(=O)/C=C/c2ccc(O)cc2)c2ccccc21 [CU401, (1E,6E)-1-(4-hydroxyphenyl)-7-[1-(methylsulfonyl)-1H-indol-3-yl]hepta-1,6-diene-3,5-dione] | 196 to 200
10 | COc1cc(/C=C/C(=O)CC(=O)/C=C/c2ccc(O)cc2)ccc1N(C)C [CU048, (1E,6E)-1-(4-dimethylamino-3-methoxyphenyl)-7-(4-hydroxyphenyl)hepta-1,6-diene-3,5-dione] | 84 to 86
11 | O=C(/C=C/c1ccc(O)cc1)CC(=O)/C=C/c1cccc(-c2ccccc2)c1 [CU504, (1E,6E)-1-(biphenyl-3-yl)-7-(4-hydroxyphenyl)hepta-1,6-diene-3,5-dione] | 176 to 182
12 | COc1cc(/C=C/C(=O)CC(=O)/C=C/c2ccc(O)cc2)cc(OC)c1 [CU099, (1E,6E)-1-(3,5-dimethoxyphenyl)-7-(4-hydroxyphenyl)hepta-1,6-diene-3,5-dione] | 75 to 80
13 | COCOc1cccc(O)c1/C=C/C(=O)CC(=O)/C=C/c1ccc(O)c(OC)c1 [CU259, (1E,6E)-1-[2-hydroxy-6-(methoxymethoxy)phenyl]-7-(4-hydroxy-3-methoxyphenyl)hepta-1,6-diene-3,5-dione] | 76 to 81
14 | COc1ccc(/C=C/C(=O)CC(=O)/C=C/c2cccc(Oc3ccccc3)c2)cc1O [CU220, (1E,6E)-1-(3-hydroxy-4-methoxyphenyl)-7-(3-phenoxyphenyl)hepta-1,6-diene-3,5-dione] | 148 to 150
15 | COc1ccc(/C=C/C(=O)CC(=O)/C=C/c2cc(Cl)cc(Cl)c2)cc1O [CU141, (1E,6E)-1-(3,5-dichlorophenyl)-7-(3-hydroxy-4-methoxyphenyl)hepta-1,6-diene-3,5-dione] | 176 to 183
16 | COc1cc(/C=C/C(=O)CC(=O)/C=C/c2ccc(NC(C)=O)cc2)ccc1O [CU003, (1E,6E)-N-{4-[7-(4-hydroxy-3-methoxyphenyl)-3,5-dioxohepta-1,6-dienyl]phenyl}acetamide] | 193 to 195
17 | COc1ccc([N+](=O)[O-])c(/C=C/C(=O)CC(=O)/C=C/c2ccc(O)cc2)c1 [CU481, (1E,6E)-1-(4-hydroxyphenyl)-7-(5-methoxy-2-nitrophenyl)hepta-1,6-diene-3,5-dione] | 151 to 155
18 | O=C(/C=C/c1ccc(O)cc1)CC(=O)/C=C/c1cc(OCc2c(F)cccc2Cl)ccc1[N+](=O)[O-] [CU492, (1E,6E)-1-[5-(2-chloro-6-fluorobenzyloxy)-2-nitrophenyl]-7-(4-hydroxyphenyl)hepta-1,6-diene-3,5-dione] | 180 to 183
19 | COc1ccc(O)c(/C=C/C(=O)CC(=O)/C=C/c2ccc(OC)c(O)c2)c1 [CU089, (1E,6E)-1-(2-hydroxy-5-methoxyphenyl)-7-(3-hydroxy-4-methoxyphenyl)hepta-1,6-diene-3,5-dione] | 80 to 86
20 | COc1ccc(/C=C/C(=O)CC(=O)/C=C/c2ccccn2)cc1O [CU218, (1E,6E)-1-(3-hydroxy-4-methoxyphenyl)-7-(pyridin-2-yl)hepta-1,6-diene-3,5-dione] | 182 to 187

Row | Structure (SMILES) | melting point [°C]
21 | Nc1ccccc1/C=C/C(=O)CC(=O)/C=C/c1ccc(O)cc1 [CU482, (1E,6E)-1-(2-aminophenyl)-7-(4-hydroxyphenyl)hepta-1,6-diene-3,5-dione] | 186 to 193
22 | COc1cc(O)cc(/C=C/C(=O)CC(=O)/C=C/c2ccc(O)cc2)c1 [CU180, (1E,6E)-1-(4-hydroxyphenyl)-7-(3-hydroxy-5-methoxyphenyl)hepta-1,6-diene-3,5-dione] | 161 to 165
23 | COc1ccc(/C=C/C(=O)CC(=O)/C=C/c2cccc(OC)c2OC)cc1O [CU071, (1E,6E)-1-(2,3-dimethoxyphenyl)-7-(3-hydroxy-4-methoxyphenyl)hepta-1,6-diene-3,5-dione] | 144 to 148
24 | COc1ccc(/C=C/C(=O)CC(=O)/C=C/c2ncc[nH]2)cc1O [CU151, (1E,6E)-1-(3-hydroxy-4-methoxyphenyl)-7-(1H-imidazol-2-yl)hepta-1,6-diene-3,5-dione] | 219 to 221
25 | COc1cc(/C=C/C(=O)CC(=O)/C=C/c2ccc(OC)c(O)c2)cc(OC)c1 [CU101, (1E,6E)-1-(3,5-dimethoxyphenyl)-7-(3-hydroxy-4-methoxyphenyl)hepta-1,6-diene-3,5-dione] | 187 to 193
26 | O=C(/C=C/c1ccc(O)cc1)CC(=O)/C=C/c1ccc2[nH]nnc2c1 [CU346, (1E,6E)-1-(1H-benzotriazol-5-yl)-7-(4-hydroxyphenyl)hepta-1,6-diene-3,5-dione] | 211 to 216
27 | COc1cc(/C=C/C(=O)CC(=O)/C=C/c2ccc(N(C)C)cc2[N+](=O)[O-])ccc1O [CU192, (1E,6E)-1-(4-dimethylamino-2-nitrophenyl)-7-(4-hydroxy-3-methoxyphenyl)hepta-1,6-diene-3,5-dione] | 203 to 210
28 | COc1cc(/C=C/C(=O)CC(=O)/C=C/c2ccc(O)c([N+](=O)[O-])c2)ccc1O [CU040, (1E,6E)-1-(4-hydroxy-3-methoxyphenyl)-7-(4-hydroxy-3-nitrophenyl)hepta-1,6-diene-3,5-dione] | 209 to 213
29 | COc1cc(/C=C/C(=O)CC(=O)/C=C/c2cn(Cc3ccccc3)c3ccccc23)ccc1O [CU416, (1E,6E)-1-(1-benzyl-1H-indol-3-yl)-7-(4-hydroxy-3-methoxyphenyl)hepta-1,6-diene-3,5-dione] | 158 to 161
30 | COc1cc(/C=C/C(=O)CC(=O)/C=C/c2ccc(C)c(C)c2)ccc1O [CU057, (1E,6E)-1-(3,4-dimethylphenyl)-7-(4-hydroxy-3-methoxyphenyl)hepta-1,6-diene-3,5-dione] | 132 to 133
31 | COc1ccc(OC)c(/C=C/C(=O)CC(=O)/C=C/c2ccc(O)c(OC)c2)c1 [CU076, (1E,6E)-1-(2,5-dimethoxyphenyl)-7-(4-hydroxy-3-methoxyphenyl)hepta-1,6-diene-3,5-dione] | 127 to 129
32 | O=C(/C=C/c1ccc(O)cc1)CC(=O)/C=C/c1ccc(Br)cc1F [CU471, (1E,6E)-1-(4-bromo-2-fluorophenyl)-7-(4-hydroxyphenyl)hepta-1,6-diene-3,5-dione] | 223 to 232
33 | COc1cc(/C=C/C(=O)CC(=O)/C=C/c2cc(O)ccc2O)ccc1O [CU106, (1E,6E)-1-(2,5-dihydroxyphenyl)-7-(4-hydroxy-3-methoxyphenyl)hepta-1,6-diene-3,5-dione] | 125 to 130
34 | COCOc1ccc(OC)cc1/C=C/C(=O)CC(=O)/C=C/c1cc(OC)ccc1O [CU456, (1E,6E)-1-(2-hydroxy-5-methoxyphenyl)-7-[5-methoxy-2-(methoxymethoxy)phenyl]hepta-1,6-diene-3,5-dione] | 131 to 138
35 | COc1ccc(/C=C/C(=O)CC(=O)/C=C/c2ccc(Oc3ccccc3)cc2)cc1O [CU219, (1E,6E)-1-(3-hydroxy-4-methoxyphenyl)-7-(4-phenoxyphenyl)hepta-1,6-diene-3,5-dione] | 185 to 187
36 | CCN(CC)c1ccc(/C=C/C(=O)CC(=O)/C=C/c2ccc(O)cc2)c(OCc2c(F)cccc2Cl)c1 [CU450, (1E,6E)-1-[2-(2-chloro-6-fluorobenzyloxy)-4-diethylaminophenyl]-7-(4-hydroxyphenyl)hepta-1,6-diene-3,5-dione] | 172 to 175
37 | CN(C)c1cc(-c2ccccc2)ccc1/C=C/C(=O)CC(=O)/C=C/c1ccc(O)cc1 [CU536, (1E,6E)-1-(3-dimethylaminobiphenyl-4-yl)-7-(4-hydroxyphenyl)hepta-1,6-diene-3,5-dione] | 83 to 88
38 | CCN(CC)c1ccc(/C=C/C(=O)CC(=O)/C=C/c2ccc(O)c(OC)c2)c(OC(C)C)c1 [CU439, (1E,6E)-1-(4-diethylamino-2-isopropyloxyphenyl)-7-(4-hydroxy-3-methoxyphenyl)hepta-1,6-diene-3,5-dione] | 156 to 160
39 | O=C(/C=C/c1ccc(O)cc1)CC(=O)/C=C/c1ccccc1C(F)(F)F [CU467, (1E,6E)-1-(4-hydroxyphenyl)-7-(2-trifluoromethylphenyl)hepta-1,6-diene-3,5-dione] | 181 to 185
40 | COc1ccc(O)cc1CCC(=O)CC(=O)CCc1cc(O)ccc1OC [CU512, 1,7-bis(5-hydroxy-2-methoxyphenyl)heptane-3,5-dione] | 163 to 169

— patent US8962674B2 (Tokyo Institute of Technology, priority 2006, dated 2015)
